Experimental data: patent publication US11453666B2, “Autotaxin inhibitory compounds” (Cancer Research Technology Limited, priority 2015, dated 2022)

Biological target: human recombinant ATX (Homo sapiens, UniProt Q13822)
Assay: Autotaxin (ATX) activity Quanta Red assay
Format: biochemical
Settings: read-out: Activity (ATX activity, Quanta Red assay; IC50)
Method: The reaction was stopped after 2 hours with a 20 μL addition of Quanta Red Stop solution (1:20 dilution in distilled water). The above-described mixture with DMSO alone was used as a positive control whereas that with DMSO alone without ATX was taken as a negative control.
Fluorescence was determined in a BMG Labtech Pherastar plus plate reader ([…]). Data were analysed using Excel fit software. IC50 values were determined in duplicate.

IC50 [nM] | Structure (SMILES)
3 | C[C@H](NC(=O)CCc1nc2cccnc2n1Cc1ccc(Br)cc1)c1ccc(F)cc1 [Example 16, 3-[3-(4-Bromo-benzyl)-3H-imidazo[4,5-b]pyridin-2-yl]-N-[(S)-1-(4-fluoro-phenyl)-ethyl]-propionamide]
3 | C[C@H](NC(=O)CCc1nc2cccnc2n1Cc1ccc(F)c(F)c1)c1ccc(Br)cc1 [Example 17, N-[(S)-1-(4-Bromo-phenyl)-ethyl]-3-[3-(3,4-difluoro-benzyl)-3H-imidazo[4,5-b]pyridin-2-yl]-propionamide]
3 | O=C(CCc1nc2cccnc2n1Cc1ccc(OC(F)(F)F)cc1)NCc1ccc(Cl)cc1 [Example 18, N-(4-Chloro-benzyl)-3-[3-(4-trifluoromethoxy-benzyl)-3H-imidazo[4,5-b]pyridin-2-yl]-propionamide]
4 | CN(C)CCOc1ccc(CNC(=O)CCc2nc3cccnc3n2Cc2ccc(OC(F)(F)F)cc2)cc1 [Example 19, N-[4-(2-Dimethylamino-ethoxy)-benzyl]-3-[3-(4-trifluoromethoxy-benzyl)-3H-imidazo[4,5-b]pyridin-2-yl]-propionamide]
3 | O=C(CCc1nc2cccnc2n1Cc1ccc(OC(F)(F)F)cc1)NC(CO)c1ccc(OC(F)(F)F)cc1 (stereo not drawn) [Example 20, N-[2-Hydroxy-1-(4-trifluoromethoxy-phenyl)-ethyl]-3-[3-(4-trifluoromethoxy-benzyl)-3H-imidazo[4,5-b]pyridin-2-yl]-propionamide]
5 | C[C@H](NC(=O)CCc1nc2cccnc2n1Cc1ccc(Br)cc1)c1ccc(Cl)cc1 [Example 21, 3-[3-(4-Bromo-benzyl)-3H-imidazo[4,5-b]pyridin-2-yl]-N-[(S)-1-(4-chloro-phenyl)-ethyl]-propionamide]
4 | O=C(CCc1nc2cccnc2n1Cc1ccc(OC(F)(F)F)cc1)NCc1ccc(OC(F)(F)F)cc1 [Example 22, N-(4-Trifluoromethoxy-benzyl)-3-[3-(4-trifluoromethoxy-benzyl)-3H-imidazo[4,5-b]pyridin-2-yl]-propionamide]
4 | O=C(CCc1nc2cccnc2n1Cc1ccc(OC(F)(F)F)cc1)NC(CO)c1ccc(C(F)(F)F)cc1 (stereo not drawn) [Example 23, N-[2-Hydroxy-1-(4-trifluoromethyl-phenyl)-ethyl]-3-[3-(4-trifluoromethoxy-benzyl)-3H-imidazo[4,5-b]pyridin-2-yl]-propionamide]
4 | COc1ccc(Cn2c(CCC(=O)N[C@@H](C)c3ccc(Cl)cc3)nc3cccnc32)cc1F [Example 24, N-[(S)-1-(4-Chloro-phenyl)-ethyl]-3-[3-(3-fluoro-4-methoxy-benzyl)-3H-imidazo[4,5-b]pyridin-2-yl]-propionamide]
4 | O=C(CCc1nc2cccnc2n1Cc1ccc(OC(F)(F)F)cc1)N[C@H]1CCc2ccccc21 [Example 25, N-(S)-Indan-1-yl-3-[3-(4-trifluoromethoxy-benzyl)-3H-imidazo[4,5-b]pyridin-2-yl]-propionamide]
4 | Cc1cnc2c(c1)nc(CCC(=O)NCc1ccc(OCCCN(C)C)cc1)n2Cc1ccc(OC(F)(F)F)cc1 [Example 26, N-[4-(3-Dimethylamino-propoxy)-benzyl]-3-[6-methyl-3-(4-trifluoromethoxy-benzyl)-3H-imidazo[4,5-b]pyridin-2-yl]-propionamide]
4 | COc1ccc(CNC(=O)CCc2nc3cccnc3n2Cc2ccc(OC(F)(F)F)cc2)cc1F [Example 27, N-(3-Fluoro-4-methoxy-benzyl)-3-[3-(4-trifluoromethoxy-benzyl)-3H-imidazo[4,5-b]pyridin-2-yl]-propionamide]
5 | O=C(CCc1nc2cccnc2n1Cc1ccc(F)cc1)N[C@@H](CO)c1ccccc1 [Example 28, 3-[3-(4-Fluoro-benzyl)-3H-imidazo[4,5-b]pyridin-2-yl]-N-((R)-2-hydroxy-1-phenyl-ethyl)-propionamide]
5 | C[C@H](NC(=O)CCc1nc2cccnc2n1Cc1ccc(OC(F)(F)F)cc1)c1ccccn1 [Example 29, N-((S)-1-Pyridin-2-yl-ethyl)-3-[3-(4-trifluoromethoxy-benzyl)-3H-imidazo[4,5-b]pyridin-2-yl]-propionamide]
5 | O=C(CCc1nc2cccnc2n1Cc1ccc(OC(F)(F)F)cc1)NCc1ccc(F)cc1 [Example 30, N-(4-Fluoro-benzyl)-3-[3-(4-trifluoromethoxy-benzyl)-3H-imidazo[4,5-b]pyridin-2-yl]-propionamide]
6 | CN(C)c1ccc(CNC(=O)CCc2nc3cccnc3n2Cc2ccc(OC(F)(F)F)cc2)cc1 [Example 31, N-(4-Dimethylamino-benzyl)-3-[3-(4-trifluoromethoxy-benzyl)-3H-imidazo[4,5-b]pyridin-2-yl]-propionamide]
6 | O=C(CCc1nc2cccnc2n1Cc1ccc(C(F)(F)F)cc1)NC(CO)c1ccc(OC(F)(F)F)cc1 (stereo not drawn) [Example 32, N-[2-Hydroxy-1-(4-trifluoromethoxy-phenyl)-ethyl]-3-[3-(4-trifluoromethyl-benzyl)-3H-imidazo[4,5-b]pyridin-2-yl]-propionamide]
6 | O=C(CCc1nc2cccnc2n1Cc1ccc(F)cc1)NC(CO)c1ccc(OC(F)(F)F)cc1 (stereo not drawn) [Example 33, 3-[3-(4-Fluoro-benzyl)-3H-imidazo[4,5-b]pyridin-2-yl]-N-[2-hydroxy-1-(4-trifluoromethoxy-phenyl)-ethyl]-propionamide]
6 | CC(NC(=O)CCc1nc2cccnc2n1Cc1ccc(OC(F)(F)F)cc1)c1ccncc1 (stereo not drawn) [Example 34, N-(1-Pyridin-4-yl-ethyl)-3-[3-(4-trifluoromethoxy-benzyl)-3H-imidazo[4,5-b]pyridin-2-yl]-propionamide]
7 | O=C(CCc1nc2cccnc2n1Cc1ccc(F)c(F)c1)NC(CO)c1ccc(Cl)cc1 (stereo not drawn) [Example 35, N-[1-(4-Chloro-phenyl)-2-hydroxy-ethyl]-3-[3-(3,4-difluoro-benzyl)-3H-imidazo[4,5-b]pyridin-2-yl]-propionamide]
7 | O=C(CCc1nc2cccnc2n1Cc1ccc(OC(F)(F)F)cc1)NC[C@@H](O)c1ccccc1 [Example 36, N-((S)-2-Hydroxy-2-phenyl-ethyl)-3-[3-(4-trifluoromethoxy-benzyl)-3H-imidazo[4,5-b]pyridin-2-yl]-propionamide]
7 | O=C(CCc1nc2cccnc2n1Cc1ccc(OC(F)(F)F)cc1)NC[C@H](O)c1ccccc1 [Example 37, N-((R)-2-Hydroxy-2-phenyl-ethyl)-3-[3-(4-trifluoromethoxy-benzyl)-3H-imidazo[4,5-b]pyridin-2-yl]-propionamide]
9 | O=C(CCc1nc2cccnc2n1Cc1ccc(OC(F)(F)F)cc1)N[C@H]1CCCc2ccccc21 [Example 38, N-(S)-1,2,3,4-Tetrahydro-naphthalen-1-yl-3-[3-(4-trifluoromethoxy-benzyl)-3H-imidazo[4,5-b]pyridin-2-yl]-propionamide]
7 | O=C(CCc1nc2cccnc2n1Cc1ccc(F)c(F)c1)NC(CO)c1ccc(OC(F)(F)F)cc1 (stereo not drawn) [Example 39, 3-[3-(3,4-Difluoro-benzyl)-3H-imidazo[4,5-b]pyridin-2-yl]-N-[2-hydroxy-1-(4-trifluoromethoxy-phenyl)-ethyl]-propionamide]
